The values below come from patent publication US20150087627A1, “COMBINATION OF KINASE INHIBITORS AND USES THEREOF” (Intellikine LLC, priority 2011, published 2015).

Structures are written as SMILES. Like-named read-outs stand apart in the source and are kept apart here.

What all share (format): biochemical
The target of one assay is T1, PI3K α (p110α/p85α) (Homo sapiens, UniProt P42336).
T1 construct: purchased Upstate / Millipore Corporation
As to the kind of experiment: PI 3-Kinase (human) HTRF assay, PI3K α. The conditions noted are these: read-out: PI3K α IC50. On the technique in general: In TR-FRET formats the signal depends on donor and acceptor labels being close together.

The target in the next assay is T2, PI3K β (p110β/p85α) (Homo sapiens, UniProt P42338).
T2 construct: purchased Upstate / Millipore Corporation
The assay is described as follows: PI 3-Kinase (human) HTRF assay, PI3K β. Conditions: read-out: PI3K β IC50.

In another assay the target is T3, PI3K γ (p110γ) (Homo sapiens, UniProt P48736).
T3 construct: purchased Upstate / Millipore Corporation
The assay is described as follows: PI 3-Kinase (human) HTRF assay, PI3K γ. The conditions noted are these: read-out: PI3K γ IC50.

The next assay concerns the target T4, PI3K δ (Homo sapiens, UniProt O00329).
T4 construct: purchased Upstate / Millipore Corporation
As to the kind of experiment: PI 3-Kinase (human) HTRF assay, PI3K δ. Conditions: read-out: PI3K δ IC50.

T4 sequence (O00329 whole entry): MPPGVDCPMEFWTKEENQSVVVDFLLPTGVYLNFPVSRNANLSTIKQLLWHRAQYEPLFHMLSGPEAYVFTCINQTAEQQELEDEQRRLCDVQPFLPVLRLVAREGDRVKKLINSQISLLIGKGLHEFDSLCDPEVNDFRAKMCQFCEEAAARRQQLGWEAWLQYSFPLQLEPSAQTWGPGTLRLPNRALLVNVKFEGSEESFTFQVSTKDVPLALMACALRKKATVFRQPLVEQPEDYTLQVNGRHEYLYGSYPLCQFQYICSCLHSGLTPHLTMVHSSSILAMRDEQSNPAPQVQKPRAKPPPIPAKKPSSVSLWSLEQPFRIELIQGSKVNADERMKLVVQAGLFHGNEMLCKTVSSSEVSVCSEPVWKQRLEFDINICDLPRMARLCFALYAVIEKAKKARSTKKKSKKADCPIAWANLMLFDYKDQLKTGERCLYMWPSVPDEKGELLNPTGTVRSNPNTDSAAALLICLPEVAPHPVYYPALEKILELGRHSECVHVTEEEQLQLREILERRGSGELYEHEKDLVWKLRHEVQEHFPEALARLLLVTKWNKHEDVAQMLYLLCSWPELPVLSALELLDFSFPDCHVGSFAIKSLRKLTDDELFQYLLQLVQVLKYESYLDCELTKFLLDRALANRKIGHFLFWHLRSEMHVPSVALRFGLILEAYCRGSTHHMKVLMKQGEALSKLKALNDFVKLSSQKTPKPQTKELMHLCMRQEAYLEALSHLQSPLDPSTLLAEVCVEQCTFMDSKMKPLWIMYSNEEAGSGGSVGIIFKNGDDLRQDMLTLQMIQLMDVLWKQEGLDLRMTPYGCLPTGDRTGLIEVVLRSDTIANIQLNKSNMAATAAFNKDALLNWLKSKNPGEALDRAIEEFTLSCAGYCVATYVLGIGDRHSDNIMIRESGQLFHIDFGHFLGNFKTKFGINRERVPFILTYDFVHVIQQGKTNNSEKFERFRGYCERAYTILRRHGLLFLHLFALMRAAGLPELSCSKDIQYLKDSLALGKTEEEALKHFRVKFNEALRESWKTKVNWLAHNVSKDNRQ
T4 sequence (P27986 whole entry partner): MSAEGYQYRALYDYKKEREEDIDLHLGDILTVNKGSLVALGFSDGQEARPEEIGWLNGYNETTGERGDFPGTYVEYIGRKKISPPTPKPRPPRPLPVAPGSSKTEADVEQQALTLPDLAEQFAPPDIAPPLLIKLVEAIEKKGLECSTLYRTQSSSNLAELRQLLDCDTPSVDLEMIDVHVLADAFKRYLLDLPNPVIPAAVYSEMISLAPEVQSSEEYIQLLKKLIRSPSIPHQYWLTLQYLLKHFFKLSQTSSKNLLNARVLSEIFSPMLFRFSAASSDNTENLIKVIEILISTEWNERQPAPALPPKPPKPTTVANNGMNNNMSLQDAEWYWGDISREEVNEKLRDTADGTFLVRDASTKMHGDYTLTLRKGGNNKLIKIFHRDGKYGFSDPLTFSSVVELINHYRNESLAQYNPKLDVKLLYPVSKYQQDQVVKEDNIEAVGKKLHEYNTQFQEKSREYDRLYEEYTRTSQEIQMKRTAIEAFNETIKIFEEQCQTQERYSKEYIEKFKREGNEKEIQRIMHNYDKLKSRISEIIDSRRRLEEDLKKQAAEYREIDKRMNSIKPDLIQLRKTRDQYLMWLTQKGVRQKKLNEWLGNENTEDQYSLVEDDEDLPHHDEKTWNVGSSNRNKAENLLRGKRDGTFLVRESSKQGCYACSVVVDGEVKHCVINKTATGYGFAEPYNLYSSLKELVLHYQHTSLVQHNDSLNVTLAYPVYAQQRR
T2 sequence (P42338 whole entry): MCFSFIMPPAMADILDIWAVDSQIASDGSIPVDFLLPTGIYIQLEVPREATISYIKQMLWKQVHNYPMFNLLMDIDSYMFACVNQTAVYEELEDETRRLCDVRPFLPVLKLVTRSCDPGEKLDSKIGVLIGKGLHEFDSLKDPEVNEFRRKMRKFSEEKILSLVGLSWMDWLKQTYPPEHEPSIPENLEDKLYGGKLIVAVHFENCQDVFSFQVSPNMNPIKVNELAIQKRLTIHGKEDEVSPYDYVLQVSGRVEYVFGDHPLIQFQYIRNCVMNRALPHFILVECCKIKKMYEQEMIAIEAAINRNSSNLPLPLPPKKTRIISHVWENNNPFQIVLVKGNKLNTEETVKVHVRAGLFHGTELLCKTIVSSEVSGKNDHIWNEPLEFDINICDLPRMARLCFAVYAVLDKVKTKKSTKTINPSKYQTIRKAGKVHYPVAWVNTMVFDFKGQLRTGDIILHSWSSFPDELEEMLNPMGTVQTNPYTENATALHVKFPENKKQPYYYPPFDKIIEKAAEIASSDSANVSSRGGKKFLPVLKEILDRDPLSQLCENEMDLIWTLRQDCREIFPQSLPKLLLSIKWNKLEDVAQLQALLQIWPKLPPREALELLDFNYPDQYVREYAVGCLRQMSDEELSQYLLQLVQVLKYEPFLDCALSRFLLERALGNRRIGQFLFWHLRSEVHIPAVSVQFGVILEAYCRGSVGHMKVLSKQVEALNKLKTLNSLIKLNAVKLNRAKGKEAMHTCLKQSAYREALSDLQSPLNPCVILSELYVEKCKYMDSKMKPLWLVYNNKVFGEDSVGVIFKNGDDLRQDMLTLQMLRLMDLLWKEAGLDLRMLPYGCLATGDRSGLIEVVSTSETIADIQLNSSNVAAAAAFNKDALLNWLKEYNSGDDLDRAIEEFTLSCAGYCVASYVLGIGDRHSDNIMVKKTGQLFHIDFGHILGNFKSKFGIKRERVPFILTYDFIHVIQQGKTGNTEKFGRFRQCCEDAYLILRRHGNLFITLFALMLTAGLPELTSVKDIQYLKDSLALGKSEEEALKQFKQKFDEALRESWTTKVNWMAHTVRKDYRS
T2 sequence (P27986 whole entry partner): as the sequence (P27986 whole entry partner) above
T3 sequence (P48736 whole entry): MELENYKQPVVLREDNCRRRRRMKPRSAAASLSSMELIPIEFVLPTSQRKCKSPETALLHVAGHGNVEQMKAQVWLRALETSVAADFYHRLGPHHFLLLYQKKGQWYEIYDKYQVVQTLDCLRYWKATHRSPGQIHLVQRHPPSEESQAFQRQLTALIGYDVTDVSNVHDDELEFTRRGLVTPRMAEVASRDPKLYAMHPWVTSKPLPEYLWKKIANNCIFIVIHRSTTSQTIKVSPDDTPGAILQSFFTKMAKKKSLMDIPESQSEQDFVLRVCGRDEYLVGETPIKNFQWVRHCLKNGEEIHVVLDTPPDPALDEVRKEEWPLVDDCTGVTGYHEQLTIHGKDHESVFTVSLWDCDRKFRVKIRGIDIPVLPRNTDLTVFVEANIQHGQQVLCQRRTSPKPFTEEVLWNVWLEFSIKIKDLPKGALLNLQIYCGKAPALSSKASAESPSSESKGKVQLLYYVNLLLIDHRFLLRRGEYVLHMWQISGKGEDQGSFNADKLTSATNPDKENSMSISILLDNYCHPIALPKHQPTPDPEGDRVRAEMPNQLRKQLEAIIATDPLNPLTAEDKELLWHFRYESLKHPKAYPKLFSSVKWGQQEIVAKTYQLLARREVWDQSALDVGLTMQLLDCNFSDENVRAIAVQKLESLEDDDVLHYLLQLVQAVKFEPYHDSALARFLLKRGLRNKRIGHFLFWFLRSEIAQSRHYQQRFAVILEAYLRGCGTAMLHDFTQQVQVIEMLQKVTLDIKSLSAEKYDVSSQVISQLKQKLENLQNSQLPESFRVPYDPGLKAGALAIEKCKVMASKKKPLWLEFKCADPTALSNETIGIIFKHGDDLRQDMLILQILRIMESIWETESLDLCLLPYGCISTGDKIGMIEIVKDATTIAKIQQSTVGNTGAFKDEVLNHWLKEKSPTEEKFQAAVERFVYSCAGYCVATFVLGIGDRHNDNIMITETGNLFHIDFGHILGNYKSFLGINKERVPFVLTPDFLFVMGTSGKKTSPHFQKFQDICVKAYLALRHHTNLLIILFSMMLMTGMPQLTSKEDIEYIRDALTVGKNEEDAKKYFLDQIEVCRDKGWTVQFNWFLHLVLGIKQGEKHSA
T1 sequence (P42336 whole entry): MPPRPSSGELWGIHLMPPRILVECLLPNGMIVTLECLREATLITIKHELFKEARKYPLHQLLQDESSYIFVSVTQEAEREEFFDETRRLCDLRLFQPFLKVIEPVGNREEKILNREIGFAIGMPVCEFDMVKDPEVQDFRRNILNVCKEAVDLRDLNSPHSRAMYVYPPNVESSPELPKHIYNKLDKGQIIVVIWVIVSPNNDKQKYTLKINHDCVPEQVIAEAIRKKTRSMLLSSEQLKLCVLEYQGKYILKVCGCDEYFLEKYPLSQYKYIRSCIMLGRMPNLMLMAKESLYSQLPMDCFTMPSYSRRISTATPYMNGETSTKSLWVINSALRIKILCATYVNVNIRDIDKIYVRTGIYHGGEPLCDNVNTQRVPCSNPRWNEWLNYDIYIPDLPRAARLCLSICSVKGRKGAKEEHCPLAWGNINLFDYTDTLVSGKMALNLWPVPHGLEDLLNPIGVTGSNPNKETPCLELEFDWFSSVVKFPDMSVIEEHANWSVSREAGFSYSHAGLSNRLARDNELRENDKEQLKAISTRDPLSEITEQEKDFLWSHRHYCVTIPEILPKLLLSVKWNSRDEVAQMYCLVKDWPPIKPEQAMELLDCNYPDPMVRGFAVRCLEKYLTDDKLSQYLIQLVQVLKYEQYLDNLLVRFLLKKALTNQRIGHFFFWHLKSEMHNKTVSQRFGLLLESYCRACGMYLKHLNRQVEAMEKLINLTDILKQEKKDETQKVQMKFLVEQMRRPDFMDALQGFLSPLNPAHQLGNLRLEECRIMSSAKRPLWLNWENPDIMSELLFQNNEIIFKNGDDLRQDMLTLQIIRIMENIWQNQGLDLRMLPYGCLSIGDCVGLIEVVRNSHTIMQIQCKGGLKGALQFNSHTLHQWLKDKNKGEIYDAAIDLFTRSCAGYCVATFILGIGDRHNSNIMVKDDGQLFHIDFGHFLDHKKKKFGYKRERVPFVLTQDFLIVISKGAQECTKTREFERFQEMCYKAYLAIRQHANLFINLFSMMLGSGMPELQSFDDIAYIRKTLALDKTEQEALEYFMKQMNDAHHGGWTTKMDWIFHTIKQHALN
T1 sequence (P27986 whole entry partner): as the sequence (P27986 whole entry partner) above

For the compound `CC1(C)CN(C2CN(c3cnc4ccc(-c5ccc6oc(N)nc6c5)nc4n3)C2)CCO1` [Compound 568], the IC50 (commonly the concentration that gives 50% inhibition) on PI3K α (p110α/p85α) (Table 4 (PI3K α inhibitors)) was less than 1 µM; on PI3K β (p110β/p85α) (Table 4 (PI3K α inhibitors)) it was more than 10 µM; on PI3K γ (p110γ) (Table 4 (PI3K α inhibitors)), less than 10 µM; at PI3K δ (Table 4 (PI3K α inhibitors)) it was more than 10 µM.

`Nc1nc2cc(-c3ccc4ncc(C(=O)N5CCOCC5)cc4c3)ccc2o1` [Compound 97]: the IC50 is less than 10 µM on PI3K α (p110α/p85α), more than 10 µM at PI3K β (p110β/p85α), more than 10 µM on PI3K γ (p110γ) and more than 10 µM at PI3K δ.

In the case of `Cc1cc(-c2ccc3oc(N)nc3c2)cn2c(C(=O)N3CCOCC3)cnc12` [Compound 448], the 50% inhibitory concentration (IC50) was less than 1 µM at PI3K α (p110α/p85α), more than 10 µM at PI3K β (p110β/p85α), less than 10 µM on PI3K γ (p110γ) and more than 10 µM at PI3K δ.

As to `C[C@H](N)C(=O)N1CCN(c2cnc3ccc(-c4ccc5oc(N)nc5c4)cc3n2)CC1` [Compound 207], the IC50 at PI3K α (p110α/p85α) is less than 0.1 µM; on PI3K β (p110β/p85α) it was less than 0.1 µM; at PI3K γ (p110γ), less than 0.1 µM; on PI3K δ, less than 1 µM.

Regarding `Nc1nc2cc(-c3cn4c(-c5cn[nH]c5)cnc4cn3)ccc2o1` [Compound 69], the IC50 was less than 1 µM on PI3K α (p110α/p85α), less than 10 µM at PI3K β (p110β/p85α), less than 1 µM at PI3K γ (p110γ) and less than 10 µM at PI3K δ.

For `Nc1nc2cc(-c3ccc4ncc(N5CCNCC5)nc4c3)ccc2o1` [Compound 88], the IC50 on PI3K α (p110α/p85α) was less than 0.1 µM; at PI3K β (p110β/p85α) it was less than 0.1 µM; on PI3K γ (p110γ), less than 1 µM; on PI3K δ it was less than 10 µM.

In the case of `Nc1nc2cc(-c3ccc4ncc(C(=O)N5CC(n6cccn6)C5)n4c3)ccc2o1` [Compound 479], the IC50 is less than 0.1 µM at PI3K α (p110α/p85α), more than 10 µM at PI3K β (p110β/p85α), less than 1 µM at PI3K γ (p110γ) and less than 10 µM on PI3K δ.

In the case of `CN1CCC(n2cnc3ccc(-c4cnc(Cl)c(NS(C)(=O)=O)c4)cc3c2=O)CC1` [Compound 526], the half-maximal inhibitory concentration (IC50) is less than 0.1 µM at PI3K α (p110α/p85α), less than 10 µM on PI3K β (p110β/p85α), more than 10 µM on PI3K γ (p110γ) and less than 1 µM on PI3K δ.

For `CC(C)N1CCN(C(=O)c2cnc3ccc(-c4ccc5oc(N)nc5c4)cn23)CC1` [Compound 160], the IC50 at PI3K α (p110α/p85α) was less than 0.1 µM; at PI3K β (p110β/p85α), less than 10 µM; on PI3K γ (p110γ), more than 10 µM; on PI3K δ, more than 10 µM.

As to `CNc1nsc2cc(-c3ccc4ncc(C(=O)N5CCOCC5)n4c3)ccc12` [Compound 497], the IC50 at PI3K α (p110α/p85α), on PI3K β (p110β/p85α), at PI3K γ (p110γ) and at PI3K δ was more than 10 µM each time.

`Nc1nc2cc(-c3ccc4ncc(N5CCN(C(=O)C6(N)CC6)CC5)nc4c3)ccc2o1` [Compound 226]: the IC50 on PI3K α (p110α/p85α) was less than 1 µM; at PI3K β (p110β/p85α) it was more than 10 µM; on PI3K γ (p110γ) it was less than 10 µM; at PI3K δ it was less than 10 µM.

Turning to `CNC(=O)C1CN(c2cnc3ccc(-c4ccc5oc(N)nc5c4)cc3n2)C1` [Compound 214], the IC50 at PI3K α (p110α/p85α) is less than 0.1 µM; on PI3K β (p110β/p85α) it was less than 0.1 µM; on PI3K γ (p110γ) it was less than 1 µM; at PI3K δ it was less than 10 µM.

Take `CS(=O)(=O)N1CCC(Nc2cnc3ccc(-c4ccc5oc(N)nc5c4)cc3n2)CC1` [Compound 95]: the IC50 was less than 0.1 µM on PI3K α (p110α/p85α), less than 10 µM on PI3K β (p110β/p85α), less than 0.1 µM on PI3K γ (p110γ) and less than 0.1 µM on PI3K δ.

Turning to `COc1ncc(-c2ccc3ncn(C4CCN(C)CC4)c(=O)c3c2)cc1NS(=O)(=O)c1ccccc1` [Compound 524], the IC50 is less than 0.1 µM at PI3K α (p110α/p85α), less than 0.1 µM on PI3K β (p110β/p85α), less than 1 µM on PI3K γ (p110γ) and less than 0.1 µM at PI3K δ.

As for `C[C@H]1CN(c2nc3cc(-c4ccc5oc(N)nc5c4)ccc3nc2N)CCN1` [Compound 403], the IC50 on PI3K α (p110α/p85α) is less than 10 µM; at PI3K β (p110β/p85α), more than 10 µM; on PI3K γ (p110γ), more than 10 µM; at PI3K δ, more than 10 µM.

On to `NCC(=O)N1CCN(c2cnc3ccc(-c4ccc5oc(N)nc5c4)cc3n2)CC1` [Compound 192], for which the IC50 at PI3K α (p110α/p85α) is less than 0.1 µM; on PI3K β (p110β/p85α), less than 1 µM; at PI3K γ (p110γ) it was less than 1 µM; on PI3K δ, less than 1 µM.
